Assay results reported in publication PMC11887451, “Leveraging Immunogenic Cell Death to Enhance the Immune Response against Malignant Pleural Mesothelioma Tumors” (Journal of the American Chemical Society, 2025).

Experiments:
[1] = system: patient-derived VMC23 cell line (epithelioid MPM); assay: MTT cytotoxicity assay, 72 h, VMC23; format: cell-based, human; details: exposure time 72 h
[2] = system: murine malignant mesothelioma cell line AB12; assay: MTT cytotoxicity assay, 72 h, AB12; format: cell-based, mouse; details: exposure time 72 h
Description: (§1) Human malignant mesothelioma cancer cell lines JU77 and LO68 were obtained from Cell Bank Australia (Children's Medical Research Institute, Westmead, Australia). Mouse malignant mesothelioma cancer cell line AB12, human nonmalignant mesothelioma cancer cell line Met5A (mesothelial cells), mouse macrophage cell line J774 and human monocytic cell line THP-1 were obtained from American Type Culture Collection (ATCC) (Rockville, MD, USA). Human malignant mesothelioma cell lines VMC23 (epithelial), Meso82 (sarcomatous), Meso92 (biphasic), were kindly provided by Prof. Walter Berger (Medical University of Vienna). All cells except for J774 were cultured in RPMI and J774 cells were cultured in DMEM. Both types of media were supplemented with 10% FBS and 1% penicillin-streptomycin (10,000 U/mL). Cells were grown in tissue culture flasks (75 cm2 and 25 cm2, SPL Life Sciences Co., Ltd., Korea). All cell lines were grown at 37 °C in a humidified atmosphere of 95% air and 5% CO 2 and passaged when they reached 80–90% confluency. All Au stock solutions were prepared in 1% DMSO in the respected medium, ensuring that cell viability was not inhibited.
(§2) The cytotoxicity of compounds was determined using an MTT colorimetric test. The cells were harvested from culture flasks by trypsinization and seeded into Cellstar 96 -well microculture plates (Greiner Bio -One) at the seeding density of 6000 cells per well (6 × 10^4 cells/mL). After
(§3) the cells were allowed to resume exponential growth for 16 h, they were exposed to drugs at
(§4) different concentrations in media for 72 h. The drugs were diluted in a complete medium at the desired concentration added to each well (100 μL) and serially diluted in other wells. After exposure for 72 h, the media was replaced with MTT in media (5 mg/mL, 100 μL/well) and

[3] = system: patient-derived Meso84 cell line (sarcomatoid MPM); assay: MTT cytotoxicity assay, 72 h, Meso84; format: cell-based, human; details: exposure time 72 h
[4] = system: patient-derived Meso92 cell line (biphasic MPM); assay: MTT cytotoxicity assay, 72 h, Meso92; format: cell-based, human; details: exposure time 72 h
Description: Cell lines and culture conditions
(§5) Mouse malignant mesothelioma cancer cell line AB12, human nonmalignant mesothelioma cancer cell line Met5A (mesothelial cells), mouse macrophage cell line J774 and human monocytic cell line THP-1 were obtained from American Type Culture Collection (ATCC) (Rockville, MD, USA). Human malignant mesothelioma cell lines VMC23 (epithelial), Meso82 (sarcomatous), Meso92 (biphasic), were kindly provided by Prof. Walter Berger (Medical University of Vienna). All cells except for J774 were cultured in RPMI and J774 cells were cultured in DMEM. Both types of media were supplemented with 10% FBS and 1% penicillin-streptomycin (10,000 U/mL). Cells were grown in tissue culture flasks (75 cm2 and 25 cm2, SPL Life Sciences Co., Ltd., Korea). All cell lines were grown at 37 °C in a humidified atmosphere of 95% air and 5% CO 2 and passaged when they reached 80–90% confluency. All Au stock solutions were prepared in 1% DMSO in the respected medium, ensuring that cell viability was not inhibited. The Au concentration in the stock solutions was confirmed through inductively coupled plasma optical emission spectrometry. The stock solution of pemetrexed (10 mM) was prepared in Milli -Q water.
Inhibition of c ell viability assay
as §2, §3, §4

[5] = system: human malignant mesothelioma cell line LO68; assay: MTT cytotoxicity assay, 72 h, LO68; format: cell-based; details: exposure time 72 h
Description: as §1, §2, §3, §4

[6] = system: AB12 cells phagocytosed by J774 macrophages; assay: Phagocytosis assay, flow cytometry; format: cell-based, mouse; details: AB12 treated 100 min at 5 × IC50 (72 h), 16 h with J774 macrophages
Experimental: page 21: incubated for an additional 50 min. Subsequently, the medium was aspirated, and the purple formazan crystals formed in viable cells were dissolved in DMSO (100 μL/well). Optical densities were measured at 570 nm using a BioTek Synergy H1 microplate and MultiskanTM SkyHigh plate readers. The quantity of viable cells was expressed in terms of treated/control (T/C) values in comparison to untreated control cells, and 50% inhibitory concentrations (IC 50) were calculated from concentration-effect curves by interpolation. An evaluation was based on means from at least three independent experiments, each comprising three […] concentration level. For macrophage analyses, the acute monocytic leukemia -derived THP-1 cell line (ATCC) was used as a model. 1 × 104 THP-1 cells were seeded per well in 96-well plates in RPMI-1640 with 10% FCS and treated for 24 h with 75 nM phorbol 12-myristate 13-acetate (PMA, Sigma- Aldrich) to induce M0 macrophage differentiation. After the differentiation period, PMA was replaced by fresh culture medium to recover for 2h. Afterwards increasing concentrations of 1G, 5A, 5B and 5G were added for a 72-h continuous drug exposure assay. In parallel, the […] were allowed to attach for 24 h. Gold compounds were added to the cells as described for the THP-1 model above. After the incubation period of 72 h, cell viability was determined by an MTT-based assay (EU4U, Biomedica) following the instructions of the manufacturer. DMSO had not impact on the cell viability at the concentrations used. Flow cytometry experiments Phagocytosis assay […] with RPMI, centrifuged (300 × g, 5 min) and labelled with CellTracker Red CMTPX Dye (0.72 μM for 5 × 10^5 cells) at 37°C for 30 minutes in 1 ml of serum -free RPMI. Following S21 page 22: centrifugation of the cells (300 × g, 5 min), 5 ml of fresh RPMI was introduced, and the cells were seeded at a density of 5 x 10^5 cells per well into Cellstar 6-well plates (Greiner Bio-One) (1 ml per well). J774 macrophages (70-80% confluence in a T75 flask) were detached by scraping, centrifuged (300 × g, 5 min). The medium was substituted with 1 ml of DMEM containing CellTracker Green CMFDA (1 μM) and the J774 macrophages were stained at 37°C for 30 minutes. Following centrifugation of the J774 macrophages (300 × g, 5 min), 5 ml of fresh DMEM was introduced, and the macrophages were seeded into a 100 cm2 petri dish (SPL Life Sciences, Korea). After 24 h, the media in AB12 cells was replaced with 1 ml of fresh […] for 100 minutes. After removing the drug-containing media, the cells were trypsinized (0.5 ml), neutralized with 1 ml of RPMI, centrifuged (300 × g, 5 min) and counted. From each sample, […] cells into 6-well plates. AB12 cells and J774 macrophages were co-incubated for 16 h at 37°C and 5% CO2, detached by scraping, centrifuged (300 × g, 5 min), and the pellets were resuspended in PBS for immediate analysis using a CytoFLEX Flow Cytometer (Beckman Coulter, USA). The percentage of phagocytosis was determined by calculating the number of double-positive macrophages (Q2) over the total number of macrophages (Q2 + Q3). […] Annexin V/PI assay AB12 cells were seeded into Cellstar 6-well plates (Greiner Bio-One) at a density of 5 × 10^5 cells/well (1 ml per well). […] The medium was removed and cells were washed with PBS (2 × 1 mL). Afterwards the cells were […] S22

[7] = system: human malignant mesothelioma cell line JU77; assay: MTT cytotoxicity assay, 72 h, JU77; format: cell-based; details: exposure time 72 h
Description: as §1, §2, §3, §4

[8] = system: human nonmalignant mesothelioma cell line Met5A; assay: MTT cytotoxicity assay, 72 h, Met5A; format: cell-based; details: exposure time 72 h
Description: Cell lines and culture conditions
as §5
Inhibition of c ell viability assay
as §2, §3, §4

[9] = system: M0-differentiated THP-1 cells; assay: MTT-based viability assay on M0-differentiated THP-1 cells, 72 h; format: cell-based, human; details: 72-h exposure, compared with AB12 cells
Experimental: incubated for an additional 50 min. Subsequently, the medium was aspirated, and the purple formazan crystals formed in viable cells were dissolved in DMSO (100 μL/well). Optical densities were measured at 570 nm using a BioTek Synergy H1 microplate and MultiskanTM SkyHigh plate readers. The quantity of viable cells was expressed in terms of treated/control (T/C) values in comparison to untreated control cells, and 50% inhibitory concentrations (IC 50) were calculated from concentration-effect curves by interpolation. An evaluation was based on means from at least three independent experiments, each comprising three replicat es per […]
For macrophage analyses, the acute monocytic leukemia -derived THP-1 cell line (ATCC) was used as a model. 1 × 104 THP-1 cells were seeded per well in 96-well plates in RPMI-1640 with 10% FCS and treated for 24 h with 75 nM phorbol 12-myristate 13-acetate (PMA, Sigma-Aldrich) to induce M0 macrophage differentiation. After the differentiation period, PMA was replaced by fresh culture medium to recover for 2h. Afterwards increasing concentrations of 1G, 5A, 5B and 5G were added for a 72-h continuous drug exposure assay. In parallel, the murine mesothelioma cell line AB12 was seeded into 96 -well plates at 2.5 × 10^3 cells/well and were allowed to attach for 24 h. Gold compounds were added to the cells as described for the THP-1 model above. After the incubation period of 72 h, cell viability was determined by an MTT-based assay (EU4U, Biomedica) following the instructions of the manufacturer. DMSO had not impact on the cell viability at the concentrations used. […]

[10] = system: AB12 cells in BALB/c mice; assay: In vivo vaccination model; parameters: species or system mouse; details: within the first 30 days after vaccination, n = 8
Description: Initially, AB12 cells underwent pretreatment with varying concentrations of Au(III) complexes, and the induced cell death and release of desired ICD biomarkers were monitored over time. Upon reaching a cell death rate of 65%–75%, BALB/c mice (n = 8) were subcutaneously injected in the left flank with a vaccine containing 3 × 10^5 of live/dying/dead cells, while the vehicle group received injections of PBS. Seven days postvaccine administration, the immunized mice were rechallenged by inoculating the same number of live AB12 cells (without any prior treatment) into the right flanks (Figure 5A). The progression of tumor growth on the right flanks was monitored using a caliper.
AB12 cells were seeded into Cellstar 24-well plates (Greiner Bio-One) at a density of 1.8 × 104
cells/ml (1 ml per well) and allowed to grow exponentially for 16 hours. Subsequently, the
medium was replaced with 1 ml of fresh medium containing compounds of interest at
predetermined concentrations (with a minimum of 4 wells per treatment condition). These
concentrations were selected to induce 65-75% cell death.
Subsequently, the culture
medium was aspirated, and the cells were washed twice with 1 mL of PBS. The cell
concentration was adjusted to 3 × 10^5 cells (including dead/dying/live cells) per 100 μL of PBS,
and the ratio of dead/live cells was assessed using the Invitrogen Countess 3 cell counter. In
the subsequent experiment, BALB/c mice (8 mice per group) were subcutaneously injected
with 0.1 mL of AB12 cells (3 × 10^5 cells/mL, including dead/dying/live cells) or the
corresponding vehicle (PBS) on the left flank. Tumor growth was monitored daily.
After 7 days, the mice were subcutaneously injected with
0.1 mL of AB12 cells (3 × 10^5 cells/mL, live cells) on the right flank. Regular measurements
of body weights and tumor sizes were taken. Mice that developed palpable tumors were
euthanized for further analysis.

[11] = determined from retention time using RP-HPLC

Compound: COC1c2cccc[c]2[Au-]2([S]C(=[N+](Cc3ccccc3)Cc3ccccc3)[S]2)[n+]2ccccc21.F[P-](F)(F)(F)(F)F (racemic) [4D]
- IC50 [1]: 4.2 ± 0.7 µM
- IC50 [2]: 2.3 ± 0.1 µM
- IC50 [3]: 2.9 ± 0.7 µM
- IC50 [4]: 4.1 ± 0.9 µM
- IC50 [5]: 2.3 ± 0.6 µM
- phagocytosis rate [6]: 35% ± 9%
- IC50 [7]: 1.7 ± 0.2 µM
- IC50 [8]: 3.2 ± 0.3 µM

Compound: F[P-](F)(F)(F)(F)F.c1cc[c]2c(c1)-c1cccc[n+]1[Au-]21[S]C(=[N+]2CCCCCC2)[S]1 (stereo not shown) [1G]
- IC50 [1]: 0.72 ± 0.14 µM
- IC50 [2]: 1.1 ± 0.1 µM
- IC50 [3]: 0.5 ± 0.04 µM
- IC50 [4]: 1.4 ± 0.2 µM
- IC50 [5]: 0.5 ± 0.12 µM
- IC50 [7]: 0.22 ± 0.03 µM
- IC50 [8]: 0.43 ± 0.09 µM
- sensitivity of THP-1-derived macrophages [9]: highly sensitive

Compound: CCCC[N+](CCCC)=C1[S][Au-]2([S]1)[c]1ccccc1Nc1cccc[n+]12.F[P-](F)(F)(F)(F)F (stereo not shown) [5C]
- IC50 [1]: 0.64 ± 0.14 µM
- IC50 [2]: 0.13 ± 0.03 µM
- IC50 [3]: 0.18 ± 0.03 µM
- IC50 [4]: 0.41 ± 0.06 µM
- IC50 [5]: 0.36 ± 0.07 µM
- mice that developed tumors after vaccination [10]: ≈ 50%
- phagocytosis rate [6]: 35% ± 9%
- IC50 [7]: 0.086 ± 0.022 µM
- IC50 [8]: 0.065 ± 0.015 µM

Compound: F[P-](F)(F)(F)(F)F.c1cc[c]2c(c1)Cc1cccc[n+]1[Au-]21[S]C(=[N+]2CCCCC2)[S]1 (stereo not shown) [2H]
- IC50 [1]: 8.4 ± 1.3 µM
- IC50 [2]: 0.31 ± 0.08 µM
- IC50 [3]: 0.3 ± 0.07 µM
- LogP [11]: 2.56
- IC50 [4]: 5.2 ± 1.2 µM
- IC50 [5]: 1.9 ± 0.3 µM
- IC50 [7]: 2 ± 0.5 µM
- IC50 [8]: 2.2 ± 0.5 µM

Compound: CC[N+](CC)=C1[S][Au-]2([S]1)[c]1ccccc1Nc1cccc[n+]12.F[P-](F)(F)(F)(F)F (stereo not shown) [5B]
- IC50 [1]: 0.3 ± 0.09 µM
- IC50 [2]: 0.053 ± 0.002 µM
- IC50 [3]: 0.063 ± 0.019 µM
- IC50 [4]: 0.21 ± 0.06 µM
- IC50 [5]: 0.24 ± 0.02 µM
- IC50 [7]: 0.19 ± 0.05 µM
- IC50 [8]: 0.18 ± 0.05 µM
- sensitivity of THP-1-derived macrophages [9]: highly sensitive

Compound: COC1c2cccc[c]2[Au-]2([S]C(=[N+]3CCCCC3)[S]2)[n+]2ccccc21.F[P-](F)(F)(F)(F)F (racemic) [4H]
- IC50 [1]: 2.8 ± 0.3 µM
- IC50 [2]: 0.22 ± 0.03 µM
- IC50 [3]: 0.33 ± 0.08 µM
- LogP [11]: 2.33
- IC50 [4]: 1.7 ± 0.3 µM
- IC50 [5]: 2.5 ± 0.1 µM
- IC50 [7]: 2.4 ± 0.2 µM
- IC50 [8]: 0.68 ± 0.14 µM
